From PubChem BioAssay (NCI)
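The compound was tested at five concentrations on cells cultured in 96-well plates, with a 48-hour exposure period. TGI is the concentration that stops growth completely.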

Tests used:
Assay in all cases: NCI tumour cell line growth inhibition, 48 h
[1] = tested on: A549 NSCLC
[2] = tested on: CAKI-1 renal
[3] = tested on: EKVX NSCLC
[4] = tested on: HCT-15 colon
[5] = tested on: HOP-62 NSCLC
[6] = tested on: KM20L2 colon
[7] = tested on: LXFL 529 NSCLC
[8] = tested on: OVCAR-4 ovarian
[9] = tested on: SNB-75 CNS

SMILES	TGI [1]	TGI [2]	TGI [3]	TGI [4]	TGI [5]	TGI [6]	TGI [7]	TGI [8]	TGI [9]
COC(=O)C1CC(C(=O)OC)c2nc3cc(C)c(C)cc3nc21 (centres undefined)	> 100 µM	> 100 µM	> 100 µM	> 100 µM	> 100 µM	> 100 µM	> 100 µM	> 100 µM	> 100 µM
CCOC(=O)/N=c1/nc(N(C)C)ss1	> 100 µM	> 100 µM	> 100 µM	> 100 µM	> 100 µM	> 100 µM	> 100 µM	> 100 µM	> 100 µM
NS(=O)(=O)c1ccc(NC(=O)COC(=O)c2cccc3c(=O)c4ccccc4[nH]c23)cc1	> 100 µM	> 100 µM	> 100 µM	> 100 µM	40.2 µM	> 100 µM	20.9 µM	> 100 µM	38.5 µM
COC(=O)C1C2CC3C(OC(=O)C31)C2OC(=O)[C@](OC)(c1ccccc1)C(F)(F)F (some centres undefined)	> 100 µM	> 100 µM	> 100 µM	> 100 µM	> 100 µM	> 100 µM	> 100 µM	> 100 µM	> 100 µM
CN(C)CC1CCCC/C1=N/OC(=O)c1ccc(Cl)c(Cl)c1 (centres undefined)	> 100 µM	> 100 µM	> 100 µM	> 100 µM	> 100 µM	> 100 µM	> 100 µM	> 100 µM	> 100 µM
COC(=O)Cc1nc2ccccc2o1	> 100 µM	> 100 µM	> 100 µM	> 100 µM	> 100 µM	46.4 µM	> 100 µM	> 100 µM	> 100 µM
COc1ccc(C(=O)O/N=C2/CCC/C2=C\c2ccccc2)cc1	> 100 µM	> 100 µM	> 100 µM	> 100 µM	> 100 µM	> 100 µM	> 100 µM	> 100 µM	> 92.9 µM
C[n+]1c(N)n(C(=O)OCc2ccccc2)c(=O)c2c1ncn2C(=O)OCc1ccccc1	> 100 µM	> 100 µM	> 100 µM	> 100 µM	> 100 µM	> 100 µM	> 100 µM	> 100 µM	65.9 µM
CC1=C(C(=O)Nc2ccccc2)C(c2ccc(C(C)C)cc2)C(C(=O)Nc2ccccc2)=C(C)N1	> 100 µM	> 100 µM	> 88 µM	61.4 µM	85.7 µM	31.7 µM	> 67.7 µM	> 100 µM	99.3 µM
Nc1nc(N)c(-c2ccccc2)c(CCC(=O)Nc2ccc(Cl)cc2)n1	> 100 µM	> 100 µM	> 100 µM	> 100 µM	> 100 µM	> 100 µM	> 100 µM	> 100 µM	> 100 µM
O=C(/C(=C/c1ccccc1)c1ccccc1)N1c2ccccc2CC1c1c[nH]c2ccccc12 (centres undefined)	> 100 µM	> 100 µM	> 100 µM	> 100 µM	> 100 µM	> 100 µM	> 100 µM	> 100 µM	> 100 µM
